A short description of data set [1]: Permeability of the compound. The note with it: not told; read-out: permeability. It counts as ADME.
For data set [2], the target named is Mitogen-activated protein kinase 14 (Homo sapiens, UniProt Q16539).
Data set [3] concerns the target Vascular endothelial growth factor receptor 2 (Homo sapiens, UniProt P35968).
A short description of data set [4]: Cmax in Sprague-Dawley rat at 2 mg/kg, po administered through cassette dosing as by LC-MS/MS analysis. The data set is classed as ADME, organism-based. Details: dose 2 mg/kg, route oral. Particulars: in vivo.
Data set [5] can be described thus: AUC in Sprague-Dawley rat at 2 mg/kg, po administered through cassette dosing by LC-MS/MS analysis. The data set is classed as ADME, organism-based. Particulars: in vivo.
Data set [6] relates to Intestinal mucosa. The data set is described as follows: Inhibition of TNFalpha production in intestinal mucosa derived from Crohn's disease patient at 1 uM measured after 24 hrs by sandwich ELISA. The data set is classed as functional, tissue-based. The note with it: Homo sapiens. Background: An ELISA detects its analyte on a solid surface through an enzyme-linked reagent.

The subject of data set [7] is Intestinal mucosa. The data set is described as follows: Inhibition of IL6 production in intestinal mucosa derived from Crohn's disease patient at 1 uM measured after 24 hrs by sandwich ELISA. It counts as functional, tissue-based. Particulars: Homo sapiens.
For data set [8], the system named is Intestinal mucosa. Kind of data set: Inhibition of TNFalpha production in intestinal mucosa derived from ulcerative colitis patient at 1 uM measured after 24 hrs by sandwich ELISA. It counts as functional, tissue-based. The note with it: Homo sapiens.
The test system of data set [9] is Intestinal mucosa. The data set is described as follows: Inhibition of IL6 production in intestinal mucosa derived from ulcerative colitis patient at 1 uM measured after 24 hrs by sandwich ELISA. The data set is classed as functional, tissue-based. The note with it: Homo sapiens.

Calls of active or inactive are those of the source. The rule behind the calls is not given here.

A word on the IC50: it is the concentration needed to halve the response being measured. The low end stands for higher potency, the high end for lower potency. What is called Cmax is the highest concentration seen after dosing. One may read the AUC as concentration integrated over time.

Chain of Mitogen-activated protein kinase 14 (Q16539 whole entry): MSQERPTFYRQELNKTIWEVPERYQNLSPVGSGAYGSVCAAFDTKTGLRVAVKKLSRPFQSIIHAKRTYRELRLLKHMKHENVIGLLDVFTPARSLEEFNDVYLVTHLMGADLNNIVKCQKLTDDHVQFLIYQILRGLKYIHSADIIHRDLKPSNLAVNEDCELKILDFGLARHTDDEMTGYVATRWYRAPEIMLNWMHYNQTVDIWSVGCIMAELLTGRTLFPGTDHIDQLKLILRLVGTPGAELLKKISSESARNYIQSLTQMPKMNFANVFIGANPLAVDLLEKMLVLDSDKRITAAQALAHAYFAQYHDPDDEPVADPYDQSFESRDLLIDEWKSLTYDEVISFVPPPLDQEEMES
Chain of Vascular endothelial growth factor receptor 2 (P35968 whole entry): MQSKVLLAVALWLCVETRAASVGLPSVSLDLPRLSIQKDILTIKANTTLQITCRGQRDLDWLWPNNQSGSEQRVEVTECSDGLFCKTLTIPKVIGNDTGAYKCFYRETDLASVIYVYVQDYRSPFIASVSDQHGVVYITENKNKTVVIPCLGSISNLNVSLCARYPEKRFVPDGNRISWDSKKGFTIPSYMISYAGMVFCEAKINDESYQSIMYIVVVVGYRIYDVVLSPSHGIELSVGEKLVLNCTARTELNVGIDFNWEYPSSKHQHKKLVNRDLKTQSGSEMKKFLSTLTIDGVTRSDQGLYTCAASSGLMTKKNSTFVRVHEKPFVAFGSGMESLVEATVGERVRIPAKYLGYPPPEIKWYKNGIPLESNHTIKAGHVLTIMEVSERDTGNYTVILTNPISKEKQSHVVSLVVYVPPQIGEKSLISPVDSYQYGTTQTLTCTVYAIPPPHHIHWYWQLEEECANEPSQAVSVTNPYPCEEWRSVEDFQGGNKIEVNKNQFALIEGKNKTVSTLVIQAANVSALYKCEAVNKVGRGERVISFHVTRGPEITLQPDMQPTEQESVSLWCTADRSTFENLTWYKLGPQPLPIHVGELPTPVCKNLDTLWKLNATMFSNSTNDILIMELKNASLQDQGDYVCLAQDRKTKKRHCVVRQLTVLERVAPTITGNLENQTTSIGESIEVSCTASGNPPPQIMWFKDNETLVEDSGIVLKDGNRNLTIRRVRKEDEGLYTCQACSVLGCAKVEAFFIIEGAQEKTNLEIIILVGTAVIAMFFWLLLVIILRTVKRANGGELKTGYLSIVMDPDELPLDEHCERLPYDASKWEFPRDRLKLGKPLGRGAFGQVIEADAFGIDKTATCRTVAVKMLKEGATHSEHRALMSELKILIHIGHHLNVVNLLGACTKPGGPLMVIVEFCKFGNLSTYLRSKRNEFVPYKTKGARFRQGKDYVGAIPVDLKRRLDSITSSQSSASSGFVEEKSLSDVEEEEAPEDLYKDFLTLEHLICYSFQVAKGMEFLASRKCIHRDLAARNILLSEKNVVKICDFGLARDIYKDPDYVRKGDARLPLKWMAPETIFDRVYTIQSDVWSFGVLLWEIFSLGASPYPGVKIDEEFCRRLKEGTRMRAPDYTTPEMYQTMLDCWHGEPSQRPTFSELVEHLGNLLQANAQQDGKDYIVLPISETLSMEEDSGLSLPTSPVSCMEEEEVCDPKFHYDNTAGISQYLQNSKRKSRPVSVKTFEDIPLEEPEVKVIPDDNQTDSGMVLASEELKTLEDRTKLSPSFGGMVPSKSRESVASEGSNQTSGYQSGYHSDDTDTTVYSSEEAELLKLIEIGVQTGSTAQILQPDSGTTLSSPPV

As for `Cc1ccc(O)cc1Nc1ccnc2ccc(C(F)(F)F)cc12`, in data set [1], the Papp was 49 ×10⁻⁶ cm/s.
For the compound `Cc1ccc(O)cc1Nc1ccnc2ccc(C(=O)NCC3CCOCC3)cc12`, the Papp in data set [1] amounted to 1.5 ×10⁻⁶ cm/s. For the same compound, the IC50 in [2] and in data set [3] was above 5 µM throughout.
Regarding `CC(C)S(=O)(=O)c1ccc2nccc(Nc3n[nH]c4ccc(F)cc34)c2c1`, in data set [4], the Cmax was determined as 370 ng/mL. This compound came in with an AUC in data set [5] of 1100 ng·h/mL. Besides, the IC50 in data set [2] and in [3] was above 5 µM each time.
`Cc1ccc(O)cc1Nc1ccnc2ccccc12`: the Papp in data set [1] amounted to 25 ×10⁻⁶ cm/s.
For `C[C@]12C=CC(=O)C=C1CC[C@@H]1[C@@H]2[C@@H](O)C[C@@]2(C)[C@H]1CC[C@]2(O)C(=O)CO`, the inhibition result with Intestinal mucosa [6], in the data set with Intestinal mucosa [7], with Intestinal mucosa [8] and in the data set on Intestinal mucosa [9] was “Active” in each case.
For `Cc1ccc(O)cc1Nc1ccnc2ccc(S(C)(=O)=O)cc12` [GW559768X], the Papp in [1] was determined as 7.9 ×10⁻⁶ cm/s.
Same read-out and setting: the result for `Cc1ccc(O)cc1Nc1ccnc2ccc(-c3cccnc3)cc12` reads 23 ×10⁻⁶ cm/s.
The same measure, in the same setting: the result for `COc1ccc2nccc(Nc3cc(O)ccc3C)c2c1` reads 23 ×10⁻⁶ cm/s.
In [4], `CS(=O)(=O)c1ccc2nccc(Nc3n[nH]c4ccc(F)cc34)c2c1` registered a Cmax of 500 ng/mL. The compound also showed an AUC in [5] of 1700 ng·h/mL.

Values taken from ChEMBL document CHEMBL3822396 (J Med Chem, 2016).
